Measured values reported in publication PMC8396812, “Aphid Odorant-Binding Protein 9 Is Narrowly Tuned to Linear Alcohols and Aldehydes of Sixteen Carbon Atoms” (Insects, 2021).

How the values were obtained:
[1] = target: T1, ApisOBP9 (Acyrthosiphon pisum, UniProt A0A8R1TD77); assay: biochemical; parameters: competitive displacement of 1-NPN fluorescence from recombinant OBP9, Kd calculated from IC50; conditions: read-out: ApisOBP9-WT
T1 construct: pET30, E. coli, N-terminal His-tag removed with enterokinase
T1 sequence (A0A8R1TD77 25-165): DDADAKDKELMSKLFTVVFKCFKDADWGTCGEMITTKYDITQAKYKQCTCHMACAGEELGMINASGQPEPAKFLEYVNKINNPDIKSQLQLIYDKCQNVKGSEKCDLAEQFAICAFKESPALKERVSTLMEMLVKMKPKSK
Experimental: Affinity constants were evaluated by the competitive fluorescent method, using a PerkinElmer FL 6500 spectrofluorometer in a right-angle configuration at room temperature and quartz cuvettes with a 1 cm path. The fluorescent probe N-phenyl-1-naphthylamine (1-NPN) was excited at 337 nm, and emission spectra were recorded between 380 and 450 nm. Binding of 1-NPN was evaluated by adding aliquots of a 1 mM methanol solution to reach final concentrations of 2–16 μM, to a 2 μM solution of the protein in 50 mM Tris-HCl buffer, pH 7.4. Intensity values were recorded at the peak maximum, around 412 nm. The dissociation constant of the complex protein/1-NPN was calculated using Prism software (https://www.graphpad.com/scientific-software/prism/, accessed on 10 February 2021). The affinities of other ligands were evaluated in competitive binding assays by adding aliquots of 1 mM methanol solutions of each ligand to final concentration values of 2 to 16 μM, to a mixture of the protein and 1-NPN, both at the concentration of 2 μM in 50 mM Tris-HCl buffer, pH 7.4. Dissociation constants of ligands were calculated from the corresponding [IC]50 values (the concentration of each ligand halving the initial value of fluorescence), using the equation:KD = [IC]50/1 + [1-NPN]/K1-NPN where [1-NPN] is the concentration of free 1-NPN, and K1-NPN the dissociation constant of the complex protein/1-NPN. All results of the binding experiments are reported in Figure 2 and in Supplementary Figures S1–S4, including those performed on a mutant (Lys37Leu), designed on the results obtained with the wild-type ApisOBP9. First, we measured the affinity of the protein to the fluorescent probe N-phenyl-1-naphthylamine (1-NPN), the most widely used with insect OBPs.

[2] = target: T1, ApisOBP9; assay: competitive displacement of 1-NPN fluorescence; type: binding; conditions: 2 μM protein, 2 μM 1-NPN, 50 mM Tris-HCl pH 7.4, room temperature

SMILES: CCCCCCCCCCCCO [1-Dodecanol]
- Kd [1]: 3790 nM

SMILES: CCCCCCCCCCCCCCO [1-Tetradecanol]
- Kd [1]: 3410 nM

SMILES: CCCCCCCCCCCCCCCCO [1-hexadecanol]
- Kd [1]: 1900 nM

SMILES: C=CC(=C)CC/C=C(\C)CCC=C(C)C [(E)-β-farnesene]
- KD [2]: in our hands, ApisOBP9 showed some affinity to EBF

SMILES: CCCC/C=C\CCCCCCOC(C)=O [(Z)-7-Dodecenyl acetate]
- Kd [1]: 1380 nM

SMILES: CCCC/C=C\CCCCCCCC=O [(Z)-9-Tetradecenal]
- Kd [1]: 5310 nM

SMILES: CCCC/C=C\CCCCCCCCCCCC=O [(Z)-13-Octadecenal]
- Kd [1]: 2280 nM

SMILES: CCCCCCCCCC(=O)O [Decanoic acid]
- Kd [1]: 14500 nM

SMILES: CCCCCC/C=C\CCCCCCCC=O [Z9-hexadecenal]
- Kd [1]: 1440 nM

SMILES: CCCC/C=C\CCCCCCCCCCO [Z11-1-hexadecenol]
- Kd [1]: 1370 nM

SMILES: CCCC/C=C\CCCCCCCCCC=O [Z11-hexadecenal]
- Kd [1]: 1140 nM

SMILES: COc1cc(/C=C/C=O)ccc1O [coniferyl aldehyde]
- KD [2]: with only coniferyl aldehyde and safranal showing moderate affinities
- Kd [1]: 7890 nM

SMILES: CC1=C(C=O)C(C)(C)CC=C1 [safranal]
- KD [2]: with only coniferyl aldehyde and safranal showing moderate affinities
- Kd [1]: 11400 nM
